Measurements from PubChem BioAssay AID330 (DTP/NCI, 2004).
Inconclusive results and toxic doses are left out. The calls were made as follows: active = survival T/C of 150% or more; inactive = T/C below 125% in these data.

Tested on: P388 leukemia ip, CD2F1 mice, survival T/C
Experiment: NCI In Vivo Anticancer Drug Screen. Data for tumor model P388 Leukemia (intraperitoneal) in CD2F1 (CDF1) mice
Conditions: endpoint: median survival time, higher = longer survival
Procedure, shortened: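 Mice carrying the transplanted tumor received test compound or vehicle. Survival was recorded in each group, and the value is the treated-group measurement divided by that of the vehicle-treated control group.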

[1] = dose: 200.0 mg/kg/injection, schedule: Q01DX005 (ip), vehicle: Klucel (hydroxypropylcellulose) (HPC)
[2] = dose: 6.25 mg/kg/injection, schedule: Q01DX009 (ip), vehicle: saline
[3] = dose: 12.5 mg/kg/injection, schedule: Q01DX009 (ip), vehicle: saline
[4] = dose: 60.0 mg/kg/injection, schedule: Q01DX005 (ip), vehicle: Klucel (hydroxypropylcellulose) (HPC)
[5] = dose: 120.0 mg/kg/injection, schedule: Q01DX005 (ip), vehicle: Klucel (hydroxypropylcellulose) (HPC)
[6] = dose: 240.0 mg/kg/injection, schedule: Q01DX005 (ip), vehicle: Klucel (hydroxypropylcellulose) (HPC)
[7] = dose: 50.0 mg/kg/injection, schedule: Q01DX009 (ip), vehicle: saline
[8] = dose: 100.0 mg/kg/injection, schedule: Q01DX009 (ip), vehicle: saline
[9] = dose: 200.0 mg/kg/injection, schedule: Q01DX009 (ip), vehicle: saline
[10] = dose: 50.0 mg/kg/injection, schedule: Q01DX005 (ip), vehicle: Klucel (hydroxypropylcellulose) (HPC)
[11] = dose: 100.0 mg/kg/injection, schedule: Q01DX005 (ip), vehicle: Klucel (hydroxypropylcellulose) (HPC)
[12] = dose: 60.0 mg/kg/injection, schedule: Q01DX005 (ip), vehicle: saline with Tween-80
[13] = dose: 120.0 mg/kg/injection, schedule: Q01DX005 (ip), vehicle: saline with Tween-80
[14] = dose: 240.0 mg/kg/injection, schedule: Q01DX005 (ip), vehicle: saline with Tween-80

Measured: T/C

Cc1cn(CCCCCCCCCCCCOc2c3occc3cc3ccc(=O)oc23)c(=O)[nH]c1=O
inactive: dose: 50.0 mg/kg/injection, schedule: Q04DX002 (ip), vehicle: Klucel (hydroxypropylcellulose) (HPC) 96 % of control | dose: 100.0 mg/kg/injection, schedule: Q04DX002 (ip), vehicle: Klucel (hydroxypropylcellulose) (HPC) 98 % of control | [1] 92 % of control | dose: 200.0 mg/kg/injection, schedule: Q04DX002 (ip), vehicle: Klucel (hydroxypropylcellulose) (HPC) 95 % of control

CC[N+]1(CC)CCCCC1
inactive: dose: 3.12 mg/kg/injection, schedule: Q01DX009 (ip), vehicle: saline 109 % of control | [2] 109 % of control | [3] 105 % of control

CC(C)CCCCCCCCCCCCC(=O)NCC(=O)NC1C(O)C(O)C(Nc2ncnc3nc[nH]c23)C(O)C1O (centres undefined)
inactive: dose: 0.5 mg/kg/injection, schedule: Q01DX009 (ip), vehicle: other 105 % of control | dose: 1.0 mg/kg/injection, schedule: Q01DX009 (ip), vehicle: other 101 % of control | dose: 2.0 mg/kg/injection, schedule: Q01DX009 (ip), vehicle: other 91 % of control | dose: 4.0 mg/kg/injection, schedule: Q01DX009 (ip), vehicle: other 91 % of control | dose: 8.0 mg/kg/injection, schedule: Q01DX009 (ip), vehicle: other 101 % of control | dose: 16.0 mg/kg/injection, schedule: Q01DX009 (ip), vehicle: other 95 % of control | dose: 32.0 mg/kg/injection, schedule: Q01DX009 (ip), vehicle: other 90 % of control

Cc1ccc(S(=O)(=O)NC(=O)Nc2nccs2)cc1
inactive: dose: 12.5 mg/kg/injection, schedule: Q01DX009 (ip), vehicle: distilled water + Tween-80 99 % of control | dose: 25.0 mg/kg/injection, schedule: Q01DX009 (ip), vehicle: distilled water + Tween-80 92 % of control | dose: 50.0 mg/kg/injection, schedule: Q01DX009 (ip), vehicle: distilled water + Tween-80 97 % of control | dose: 100.0 mg/kg/injection, schedule: Q01DX009 (ip), vehicle: distilled water + Tween-80 106 % of control | dose: 200.0 mg/kg/injection, schedule: Q01DX009 (ip), vehicle: distilled water + Tween-80 99 % of control

COc1cc(NS(=O)(=O)c2ccccc2)c2nc3ccc(Cl)cc3nc2c1
inactive: [4] 96 % of control | [5] 90 % of control | [6] 89 % of control

CC1(C)OCC(N)(CO)CO1
inactive: [7] 107 % of control | [8] 102 % of control | [9] 98 % of control | dose: 400.0 mg/kg/injection, schedule: Q01DX009 (ip), vehicle: saline 98 % of control

Cc1nc(-c2ccccc2)nc2c1nc(Cc1ccc(Cl)cc1)n2Nc1ccccc1
inactive: [10] 95 % of control | [11] 91 % of control | [1] 88 % of control

CC1=C(/C=C/C(C)=C/C=C/C(C)=C/C=C/C=C(C)/C=C/C=C(\C)C=O)C(C)(C)CCC1
inactive: [12] 101 % of control | [13] 92 % of control | [14] 94 % of control

CCCCCCCCCCCCOC(=O)c1ccc(Cl)cc1
inactive: dose: 50.0 mg/kg/injection, schedule: Q01DX009 (ip), vehicle: saline with Tween-80 87 % of control | dose: 100.0 mg/kg/injection, schedule: Q01DX009 (ip), vehicle: saline with Tween-80 102 % of control | dose: 200.0 mg/kg/injection, schedule: Q01DX009 (ip), vehicle: saline with Tween-80 104 % of control

O=C(NC(c1ccccc1)c1cccs1)c1cccs1 (centres undefined)
inactive: [10] 99 % of control | [11] 99 % of control | [1] 103 % of control

C/C=C1\C[N+]2(C)CCC34c5ccccc5NC32C(O)CC1C4(CO)C(=O)OC (centres undefined)
inactive: dose: 4.0 mg/kg/injection, schedule: Q01DX009 (ip), vehicle: saline with Tween-80 110 % of control | dose: 4.0 mg/kg/injection, schedule: Q01DX009 (ip), vehicle: saline 113 % of control | dose: 8.0 mg/kg/injection, schedule: Q01DX009 (ip), vehicle: saline with Tween-80 110 % of control | dose: 8.0 mg/kg/injection, schedule: Q01DX009 (ip), vehicle: saline 97 % of control | dose: 16.0 mg/kg/injection, schedule: Q01DX009 (ip), vehicle: saline with Tween-80 103 % of control | dose: 16.0 mg/kg/injection, schedule: Q01DX009 (ip), vehicle: saline 105 % of control | dose: 32.0 mg/kg/injection, schedule: Q01DX009 (ip), vehicle: saline with Tween-80 110 % of control | dose: 32.0 mg/kg/injection, schedule: Q01DX009 (ip), vehicle: saline 98 % of control

CC1(C)Oc2ccc3ccccc3c2C(c2ccc(O)cc2)=C1c1ccccc1
inactive: [10] 103 % of control | [11] 99 % of control | [1] 94 % of control

[Cl][Fe]([Cl])([Cl])[Cl].c1ccc(C[n+]2ccccc2)cc1
inactive: [2] 108 % of control | [3] 104 % of control | dose: 25.0 mg/kg/injection, schedule: Q01DX009 (ip), vehicle: saline 117 % of control

O=C(COc1ccccc1)OC(=O)COc1ccccc1
inactive: dose: 25.0 mg/kg/injection, schedule: Q01DX009 (ip), vehicle: other 109 % of control | dose: 50.0 mg/kg/injection, schedule: Q01DX009 (ip), vehicle: other 100 % of control | dose: 100.0 mg/kg/injection, schedule: Q01DX009 (ip), vehicle: other 93 % of control | dose: 200.0 mg/kg/injection, schedule: Q01DX009 (ip), vehicle: other 98 % of control

OCc1cc(-c2ccc(Cl)cc2)nc2c(C(F)(F)F)cccc12
inactive: dose: 100.0 mg/kg/injection, schedule: Q04DX003 (ip), vehicle: saline with Tween-80 100 % of control | dose: 200.0 mg/kg/injection, schedule: Q04DX003 (ip), vehicle: saline with Tween-80 111 % of control | dose: 400.0 mg/kg/injection, schedule: Q04DX003 (ip), vehicle: saline with Tween-80 92 % of control

COc1ccc2cc1CCNC(=O)C1CCCN1C(=O)C1NCCC1O2 (centres undefined)
inactive: dose: 20.0 mg/kg/injection, schedule: Q01DX005 (ip), vehicle: Klucel (hydroxypropylcellulose) (HPC) 92 % of control | dose: 40.0 mg/kg/injection, schedule: Q01DX005 (ip), vehicle: Klucel (hydroxypropylcellulose) (HPC) 104 % of control | dose: 80.0 mg/kg/injection, schedule: Q01DX005 (ip), vehicle: Klucel (hydroxypropylcellulose) (HPC) 107 % of control

CCC(=O)OC1C(OC2C(C)C(OC3CC(C)(OC)C(O)C(C)O3)C(C)C(=O)OC(CC)C(C)(O)C(O)C(C)C(=O)C(C)CC2(C)O)OC(C)CC1N(C)C (centres undefined)
inactive: [7] 105 % of control | [8] 97 % of control | [9] 92 % of control

CCOC(=O)CSCC(N)=O
inactive: [7] 100 % of control | [8] 100 % of control | [9] 98 % of control

O=[N+]([O-])c1ccc2nnnn2c1
inactive: [7] 100 % of control | [8] 107 % of control | [9] 100 % of control

OC1CC2CCC(C1)N2c1ccccc1 (centres undefined)
inactive: dose: 50.0 mg/kg/injection, schedule: Q01DX005 (ip), vehicle: saline 115 % of control | dose: 100.0 mg/kg/injection, schedule: Q01DX005 (ip), vehicle: saline 97 % of control

COc1ccc(/C=N/N2CN(C(CC(N)=O)C(=O)O)P(Nc3ncccn3)N=C2N)cc1OC (centres undefined)
inactive: [12] 104 % of control | [13] 102 % of control | [14] 95 % of control

COC(=O)C(CCC1NCCc2c1[nH]c1ccccc21)(Sc1ccccc1)Sc1ccccc1 (centres undefined)
inactive: [4] 108 % of control | [5] 105 % of control | [6] 103 % of control
